Measured values from patent US4161520A, “Method of treating hypertension” (priority 1976, dated 1979).

Assays:
[1] = Oral (per os) toxicity (LD50); assay type: in vivo
DOCA-Na. rat = assay: Comparative antihypertensive activity of polyether ionophores in the DOCA-Na rat (Example 3, Table III); assay type: in vivo; settings: oral, five-day period, daily dose 1/100 of oral LD50 up to 10 mg/kg/day; for AHR (Subacute antihypertensive ratio): bromolasalocid as standard reference; for DURATION OF EFFECT: monitored until return to pre-drug levels
Description: Using bromolasalocid as a standard for comparison, a number of polyether ionophores were tested for antihypertensive activity. The tests were conducted utilizing single oral dosages in the DOCA-Na. rat over a five-day period with dosing discontinued thereafter. Blood pressure monitoring was carried out for the five-day period and daily after cessation of dosing until blood pressure returned to pre-drug levels. […] The daily dosage was calculated by using one-one hundredth (1/100) of the oral (per os) toxicity (LD50) up to a maximum of 10 mg/kg/day. The antihypertensive activity expressed as AHR (Subacute antihypertensive ratio) was calculated using bromolasalocid as the standard reference (Table III).

Compound | LD50 [1] [mg/kg] | ONSET TO MAX. RESPONSE (DOCA-Na. rat) [days] | AHR (Subacute antihypertensive ratio) (DOCA-Na. rat) | DURATION OF EFFECT (DOCA-Na. rat) [days]
COC1CCC(OC2C(C)C(O)(C(C)C(=O)O)OC(CC3CC(OC)C(C)C4(O3)OC(C)(C3CCC(C5CCC(C6OC(C)(O)C(C)C(OC)C6C)O5)O3)C(OC)C4C)C2(C)OC)OC1C (stereo not shown) [A-204] | 14 | 4 | 86.6 | 5
CNc1ccc2oc(C[C@H]3O[C@@]4(CC[C@H]3C)O[C@H]([C@H](C)C(=O)c3ccc[nH]3)[C@H](C)C[C@H]4C)nc2c1C(=O)O [A-23187] | > 1000 | 4 | 0.93 | 10
CO[C@@H]1C[C@@H](C[C@H]2CC[C@H](C)[C@H]([C@@H](C)C(=O)O)O2)O[C@]2(O[C@](C)([C@H]3CC[C@@](C)([C@@H]4O[C@@H]([C@H]5O[C@@](O)(CO)[C@H](C)C[C@@H]5C)C[C@@H]4C)O3)C[C@H]2C)[C@@H]1C [NIGERICIN, Nigericin] | 190 | 3 | 4.0 | 9
CC/C(=C\C=C\[C@@H]1C=C[C@@H]2[C@@H](CC)CC[C@H]2[C@@H]1C(=O)c1ccc[nH]1)[C@@H]1O[C@@H]([C@@H](C)C(=O)O)CC[C@@H]1C [X-14547A] | 129 | 2 | 0.58 | 3
BROMOISOLASALOCID | > 1000 | 2 | 0.85 | 8
Lysocellin | 225 | 2 | 2.08 | 3
Monensin | 250 | 2 | 7.2 | 9
